Converted amounts (≈) assume the structure as drawn.
Assays:
HTLV-IIIB virus = experiment: Anti-HIV activity: protection of HTLV-IIIB infected MT-4 cells, MTT method; format: cell-based; details: MT-4 cells infected with HTLV-IIIB, 5 day culture; for EC50: Human immunodeficiency virus 1, MT4, 120 h
Protocol: The anti-HIV activity of the dipeptide compound of the present invention was evaluated as described below. That is, the inhibitory action of the compound on formation of HIV virus particles which infects T lymphocyte was evaluated by potency to prevent death of T lymphocyte accompanied by said virus infection.
(§1) According to a test method which was already reported in publications (H.Nakashima et al., Antimicrob. Agents Chemother.36, 1249-1255 (1992), etc.,), anti-HIV activity was evaluated, by using MT-4 cell line and HTLV-IIIB virus, MT-4 cells (2.5×10^4 well, MOI:001) infected with said HTLV-IIIB virus just before the addition were into 96-well microtiter plate wherein each well contained various concentration of tested compound. At the same time, in order to investigate cytotoxicity of tested compounds to MT-4 cell line, non-infected MT-4 cell line was cultured in the presence of various kinds of tested compound. After 5 day culture at 37° C. in a CO2 incubator, the number of vial cells was counted by MTT method.
Virus whose infectious value was 3.8×10^4 TCID 50/ml was used.

MT-4 cell line = experiment: Cytotoxicity to non-infected MT-4 cell line, MTT method; format: cell-based; details: non-infected MT-4 cells, 5 day culture
Protocol: as §1, with “method. […]” for “method.”

[1] = Pharmacokinetics in rats, intravenous or intraduodenal administration, plasma concentration; format: in vivo
Protocol: Metabolic characteristics of the dipeptide compounds of the present invention was evaluated using rats. Tested compounds dissolved in vehicle was administered intraduodenally or intravenously. After administration, blood was taken and the concentration of residual tested compound in plasma was analyzed. The dosage of the tested compound was described in table 3.

Recombinant HIV protease = biological target: T1, Recombinant HIV protease (Human immunodeficiency virus type 1 group M subtype B, UniProt P04585); experiment: HIV protease inhibitory activity (cleavage of synthetic hepta-peptide, HPLC); format: biochemical; details: for HIV protease inhibitory activity (%) / inhibition at 0.05 µM: 37° C., 60 min; for inhibition at 5 µM: read-out: HIV protease inhibitory activity (%)
T1 construct: Recombinant HIV protease
Protocol: Recombinant HIV protease (Biochemistry, 250 (9), 264 (1990)) and synthetic hepta-peptide (H-Ser-Gln-Asn-Tyr-Pro-Ile-Val-OH/trifluoroacetic acid salt) were used for assay of protease activity. Peptide fragment H-Pro-Ile-Val-OH formed by cleavage between -Tyr . . . Pro of said substrate after a reaction in the presence of various concentration of tested compound at 37° C. for 60 min. was determined by reversed phase HPLC and the inhibitory rate was calculated (referred to Japanese laid-open unexamined patent, No. 170722/1993).
The concentration of tested compound represents the final concentration thereof of the reaction mixture.

Row | SMILES | Anti-HIV activity EC50 (HTLV-IIIB virus) [µg/mL] | Cytotoxicity CC50 (MT-4 cell line) [µg/mL] | AUC ([1]; i.d., 20.0 mg/kg) [µg/mL/min] | AUC ([1]; i.v., 10.0 mg/kg) [µg/mL/min] | HIV protease inhibitory activity (%) (Recombinant HIV protease; concentration 50 nM (final)) | HIV protease inhibitory activity (%) (Recombinant HIV protease; concentration 5 μM (final)) | inhibition at 0.05 µM (Recombinant HIV protease; concentration 50 nM (final)) [%] | inhibition at 5 µM (Recombinant HIV protease) [%] | EC50 (HTLV-IIIB virus) [µg/mL] | AUC ([1]; i.d., 10.0 mg/kg) [µg/mL/min] | MRT ([1]; i.v., 10.0 mg/kg) [h]
1 | Cc1c(O)cccc1C(=O)N[C@@H](Cc1ccccc1)[C@H](O)C(=O)N1CSC[C@H]1C(=O)NC(C)(C)C [Compound of example 21, (R)-N-tert-butyl-3-[(2S,3S)-2-hydroxy-3-[3-hydroxy-2-methylbenzoy 1]amino-4-phenylbutanoyl]-1,3-thiazolidine-4-carboxamide] | 0.70 | 184 | 101 | 111 |  |  |  |  |  |  | 
2 | Cc1c(O)cccc1C(=O)N[C@@H](Cc1ccccc1)[C@H](O)C(=O)N1CSC(C)(C)[C@H]1C(=O)NC(C)(C)C [Compound of example 22, (R)-N-tert-butyl-3-[(2S,3S)-2-hydroxy-3-[3-hydroxy-2-methylbenzoy 1]amino-4-phenylbutanoyl]-5,5-dimethyl-1,3-thiazolidine-4-carboxamide] | 0.15 | 156 | 106 | 111 | 87.6 | 99.0 |  |  |  |  | 
3 | CCc1c(O)cccc1C(=O)N[C@@H](Cc1ccccc1)[C@H](O)C(=O)N1CSC[C@H]1C(=O)NC(C)(C)C [Compound of example 31, (R)-N-tert-butyl-3-[(2S,3S)-2-hydroxy-3-(2-ethyl-3-hydroxybenzoyl)amino-4-phenylbutanoyl]-1,3-thiazolidine-4-carboxamide] |  | 168 |  | 276 |  |  | 45.6 | 97.5 | 1.46 (≈ 2.84 µM) | 99 | 1.6
4 | Cc1ccccc1CNC(=O)[C@@H]1CSCN1C(=O)[C@@H](O)[C@H](Cc1ccccc1)NC(=O)c1cccc(O)c1C [Compound of example 34, (R)-N-(2-methylbenzyl)-3-[(2S,3S)-3-(3-hydroxy-2-methylbenzoyl)amino-2-hydroxy-4-phenylbutanoyl]-1,3-thiazolidine-4-carboxamide] |  | 24.5 |  | 124 |  |  | 69.8 | 96.7 | 5.35 (≈ 9.77 µM) | 40 | 
5 | CCc1c(O)cccc1C(=O)N[C@@H](Cc1ccccc1)[C@H](O)C(=O)N1CSC[C@H]1C(=O)NCc1ccccc1C [Compound of example 35, (R)-N-(2-methylbenzyl)-3-[(2S,3S)-3-(2-ethyl-3-hydroxybenzoyl)amino-2-hydroxy-4-phenylbutanoyl]-1,3-thiazolidine-4-carboxamide] |  | 90.9 |  |  |  |  | 48.8 | 98.1 | 4.15 (≈ 7.39 µM) |  | 
6 | CCc1c(O)cccc1C(=O)N[C@@H](Cc1ccccc1)[C@H](O)C(=O)N1CSC(C)(C)[C@H]1C(=O)NC(C)(C)C [Compound of example 36, (R)-N-tert-butyl-3-[(2S,3S)-3-(2-ethyl-3-hydroxybenzoyl)amino-2-hydroxy-4-phenylbutanoyl]-5,5-dimethyl-1,3-thiazolidine-4-carboxamide] |  | 103 |  | 174 |  |  | 83.5 | > 99 | 0.54 (≈ 0.997 µM) | 64 | 
7 | CCc1c(O)cccc1C(=O)N[C@@H](Cc1ccccc1)[C@H](O)C(=O)N1CSC(C)(C)[C@H]1C(=O)NCc1ccccc1C [Compound of example 38, (R)-N-(2-methylbenzyl)-3-[(2S,3S)-3-(2-ethyl-3-hydroxybenzoyl)amino-2-hydroxy-4-phenylbutanoyl]-5,5-dimethyl-1,3-thiazolidine-4-carboxamide] |  | 19.5 |  |  |  |  | 97.3 | > 99 | 0.18 (≈ 0.305 µM) |  | 
8 | CSC[C@H](NC(=O)COc1cccc2cnccc12)C(=O)N[C@@H](Cc1ccccc1)[C@H](O)C(=O)N1CSC[C@H]1C(=O)NC(C)(C)C [KNI-272, (R)-3-[(2S,3S)-3-(N-(isoquinoline-5-yloxy)acetyl-methylthio-L-alanyl)amino-2-hydroxy-4-phenylbutanoyl]1,3-thiazolidine-4-N'-t-butylcarboxamide, reference compound] | 0.21 | 115 |  | 224 |  |  |  |  |  | 98 | 
